# Columns and labels:
# Assay type in all cases: cell-based
# [1] = system: Staphylococcus aureus FDA 209PJc-1; test: Antibacterial activity, agar-dilution MIC, organism No. 1; settings: Staphylococcus aureus, FDA209PJC1; Organism No. 1, bouillon-agar; read-out: Minimum Inhibitory Concentration
# Outline: (§1)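 An agar-dilution procedure on bouillon-agar medium was applied, and each MIC was recorded as micrograms of specimen per ml of medium.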
# [2] = system: Staphylococcus aureus Terajima; test: Antibacterial activity, agar-dilution MIC, organism No. 2; settings: Staphylococcus aureus; Organism No. 2, bouillon-agar; read-out: Minimum Inhibitory Concentration
# Outline: as §1
# [3] = system: Staphylococcus aureus MS 353; test: Antibacterial activity, agar-dilution MIC, organism No. 3; settings: Staphylococcus aureus, MS353; Organism No. 3, bouillon-agar; read-out: Minimum Inhibitory Concentration
# Outline: as §1
# [4] = system: Streptococcus pyogenes Cook; test: Antibacterial activity, agar-dilution MIC, organism No. 4; settings: Streptococcus pyogenes; Organism No. 4, bouillon-agar; read-out: Minimum Inhibitory Concentration
# Outline: as §1
# [5] = system: Escherichia coli NIHJ-JC-2; test: Antibacterial activity, agar-dilution MIC, organism No. 5; settings: Escherichia coli, NIHJJC2; Organism No. 5, bouillon-agar; read-out: Minimum Inhibitory Concentration
# Outline: as §1
# [6] = system: Escherichia coli K12 C600 IAM 1264; test: Antibacterial activity, agar-dilution MIC, organism No. 6; settings: Escherichia coli, IAM1264; Organism No. 6, bouillon-agar; read-out: Minimum Inhibitory Concentration
# Outline: as §1
# [7] = system: Klebsiella pneumoniae PCI-602; test: Antibacterial activity, agar-dilution MIC, organism No. 7; settings: Klebsiella pneumoniae, PCI602; Organism No. 7, bouillon-agar; read-out: Minimum Inhibitory Concentration
# Outline: as §1
# [8] = system: Salmonella typhimurium IID 971; test: Antibacterial activity, agar-dilution MIC, organism No. 8; settings: Salmonella enterica; Organism No. 8, bouillon-agar; read-out: Minimum Inhibitory Concentration
# Outline: as §1
# Salmonella typhi 901 = test: Antibacterial activity, agar-dilution MIC, organism No. 9; settings: Salmonella enterica, TYPHI, read-out: Minimum Inhibitory Concentration
# Outline: as §1
# [9] = system: Salmonella paratyphi-A 1015; test: Antibacterial activity, agar-dilution MIC, organism No. 10; settings: Salmonella enterica, PARATYPHI, read-out: Minimum Inhibitory Concentration
# Outline: as §1
# [10] = system: Salmonella shottmuelleri 8006; test: Antibacterial activity, agar-dilution MIC, organism No. 11; settings: Salmonella, 8006; Organism No. 11, bouillon-agar; read-out: Minimum Inhibitory Concentration
# Outline: as §1
# [11] = system: Salmonella enteritidis G 14; test: Antibacterial activity, agar-dilution MIC, organism No. 12; settings: Salmonella enterica, ENTERITIDIS; Organism No. 12, bouillon-agar; read-out: Minimum Inhibitory Concentration
# Outline: as §1
# [12] = system: Serratia marcescens IAM 1184; test: Antibacterial activity, agar-dilution MIC, organism No. 13; settings: Serratia marcescens, IAM1184; Organism No. 13, bouillon-agar; read-out: Minimum Inhibitory Concentration
# Outline: as §1
# [13] = system: Bacillus subtilis ATCC 6633; test: Antibacterial activity, agar-dilution MIC, organism No. 14; settings: Bacillus subtilis, ATCC6633; Organism No. 14, bouillon-agar; read-out: Minimum Inhibitory Concentration
# Outline: as §1
# [14] = system: Pseudomonas aeruginosa IFO 3445; test: Antibacterial activity, agar-dilution MIC, organism No. 15; settings: Pseudomonas aeruginosa, IFO3445; Organism No. 15, bouillon-agar; read-out: Minimum Inhibitory Concentration
# Outline: as §1
# [15] = system: Pseudomonas aeruginosa NCTC 10490; test: Antibacterial activity, agar-dilution MIC, organism No. 16; settings: Pseudomonas aeruginosa, NCTC10490; Organism No. 16, bouillon-agar; read-out: Minimum Inhibitory Concentration
# Outline: as §1
# [16] = system: Pseudomonas aeruginosa PAO 1; test: Antibacterial activity, agar-dilution MIC, organism No. 17; settings: Pseudomonas aeruginosa, PAO1; Organism No. 17, bouillon-agar; read-out: Minimum Inhibitory Concentration
# Outline: as §1
# [17] = system: Proteus morganii IFO 3848; test: Antibacterial activity, agar-dilution MIC, organism No. 18; settings: Morganella morganii, IFO3848; Organism No. 18, bouillon-agar; read-out: Minimum Inhibitory Concentration
# Outline: as §1
# [18] = system: Proteus mirabilis IFO 3849; test: Antibacterial activity, agar-dilution MIC, organism No. 19; settings: Proteus mirabilis, IFO3849; Organism No. 19, bouillon-agar; read-out: Minimum Inhibitory Concentration
# Outline: as §1
# Proteus vulgaris OX-19 = test: Antibacterial activity, agar-dilution MIC, organism No. 20; settings: Proteus vulgaris, OX19; Organism No. 20, bouillon-agar; read-out: Minimum Inhibitory Concentration
# Outline: as §1
# Proteus vulgaris HX-19 = test: Antibacterial activity, agar-dilution MIC, organism No. 21; settings: Proteus vulgaris, HX19; Organism No. 21, bouillon-agar; read-out: Minimum Inhibitory Concentration
# Outline: as §1
# [19] = system: Proteus rettgeri IFO 3850; test: Antibacterial activity, agar-dilution MIC, organism No. 22; settings: Providencia rettgeri, IFO3850; Organism No. 22, bouillon-agar; read-out: Minimum Inhibitory Concentration
# Outline: as §1
# [20] = system: Enterobacter aerogenes ATCC 13048; test: Antibacterial activity, agar-dilution MIC, organism No. 23; settings: Klebsiella aerogenes, ATCC13048; Organism No. 23, bouillon-agar; read-out: Minimum Inhibitory Concentration
# Outline: as §1
# Enterobacter cloacae 963 = test: Antibacterial activity, agar-dilution MIC, organism No. 24; settings: Enterobacter cloacae, 963; Organism No. 24, bouillon-agar; read-out: Minimum Inhibitory Concentration
# Outline: as §1
# [21] = system: Micrococcus luteus ATCC 9341; test: Antibacterial activity, agar-dilution MIC, organism No. 25; settings: Micrococcus luteus, ATCC9341; Organism No. 25, bouillon-agar; read-out: Minimum Inhibitory Concentration
# Outline: as §1
# [22] = system: Streptococcus pyogenes IFO 3340; test: Antibacterial activity, agar-dilution MIC, organism No. 26; settings: Streptococcus pyogenes, IFO3340; Organism No. 26, bouillon-agar; read-out: Minimum Inhibitory Concentration
# Outline: as §1
# [23] = system: Streptococcus faecium IFO 3826; test: Antibacterial activity, agar-dilution MIC, organism No. 27; settings: Enterococcus faecium, IFO3826; Organism No. 27, bouillon-agar; read-out: Minimum Inhibitory Concentration
# Outline: as §1
# [24] = system: Mycoplasma pneumoniae IID817; test: Antimycoplasmal activity, MIC by phenol red colour change, organism No. 28; settings: Mycoplasma, IID817; Organism No. 28, PPLO broth + 1% glucose, 37° C.; read-out: Minimum Inhibitory Concentration (MIC)
# Procedure: Mycoplasma pneumoniae IID817 was used as the test microorganism in a culture medium prepared by adding 1% of glucose to "PPLO broth (manufactured by Difco Co.) liquid culture medium" at 37° C. with phenol red as an indicator, thereby culturing the test microorganism.
# [25] = system: Candida albicans IAM 4905; test: Antifungal activity, agar-dilution MIC, organism No. 29; settings: Candida albicans, IAM4905; Organism No. 29, bouillon-agar; read-out: Minimum Inhibitory Concentration
# Outline: as §1
# [26] = system: Aspergillus niger IFO 6342; test: Antifungal activity, agar-dilution MIC, organism No. 30; settings: Aspergillus niger, IFO6342; Organism No. 30, bouillon-agar; read-out: Minimum Inhibitory Concentration
# Outline: as §1
SMILES,MIC [1],MIC [2],MIC [3],MIC [4],MIC [5],MIC [6],MIC [7],MIC [8],MIC (Salmonella typhi 901),MIC [9],MIC [10],MIC [11],MIC [12],MIC [13],MIC [14],MIC [15],MIC [16],MIC [17],MIC [18],MIC (Proteus vulgaris OX-19),other results
[C-]#[N+]C12CC3(/C=C/C(=O)Nc4cccc(C(=O)OC)c4)OC3C1O2 (stereo not drawn) [compound 50],0.2 µg/mL,1.56 µg/mL,0.39 µg/mL,200 µg/mL,> 200 µg/mL,> 200 µg/mL,0.39 µg/mL,50 µg/mL,25 µg/mL,6.25 µg/mL,1.56 µg/mL,6.25 µg/mL,> 200 µg/mL,6.25 µg/mL,> 200 µg/mL,> 200 µg/mL,> 200 µg/mL,1.56 µg/mL,> 200 µg/mL,1.56 µg/mL,MIC (Proteus vulgaris HX-19): 0.1 µg/mL; MIC [19]: 6.25 µg/mL; MIC [20]: > 200 µg/mL; MIC (Enterobacter cloacae 963): 200 µg/mL; MIC [21]: < 0.05 µg/mL; MIC [22]: 1.56 µg/mL; MIC [23]: 12.5 µg/mL; MIC [24]: < 0.2 µg/mL; MIC [25]: 0.79 µg/mL; MIC [26]: 1.56 µg/mL
[C-]#[N+]C12CC3(/C=C/C(=O)Nc4ccc(C(=O)c5ccccc5)cc4)OC3C1O2 (stereo not drawn) [compound 79],0.39 µg/mL,0.78 µg/mL,0.39 µg/mL,3.13 µg/mL,> 200 µg/mL,> 200 µg/mL,3.13 µg/mL,> 200 µg/mL,200 µg/mL,3.13 µg/mL,6.25 µg/mL,> 200 µg/mL,> 200 µg/mL,1.56 µg/mL,> 200 µg/mL,> 200 µg/mL,> 200 µg/mL,6.25 µg/mL,> 200 µg/mL,1.56 µg/mL,MIC (Proteus vulgaris HX-19): 1.56 µg/mL; MIC [19]: > 200 µg/mL; MIC [20]: > 200 µg/mL; MIC (Enterobacter cloacae 963): > 200 µg/mL; MIC [21]: > 200 µg/mL; MIC [22]: 0.78 µg/mL; MIC [23]: 0.78 µg/mL; MIC [24]: < 0.2 µg/mL; MIC [25]: 0.39 µg/mL; MIC [26]: 3.13 µg/mL
[C-]#[N+]C12CC3(/C=C/C(=O)NOCc4ccccc4)OC3C1O2 (stereo not drawn) [compound 82],< 0.05 µg/mL,0.2 µg/mL,< 0.05 µg/mL,0.78 µg/mL,12.5 µg/mL,12.5 µg/mL,0.39 µg/mL,6.25 µg/mL,0.78 µg/mL,0.78 µg/mL,0.78 µg/mL,0.78 µg/mL,> 200 µg/mL,6.25 µg/mL,> 200 µg/mL,> 200 µg/mL,> 200 µg/mL,0.78 µg/mL,> 200 µg/mL,0.2 µg/mL,MIC (Proteus vulgaris HX-19): 0.1 µg/mL; MIC [19]: > 200 µg/mL; MIC [20]: > 200 µg/mL; MIC (Enterobacter cloacae 963): > 200 µg/mL; MIC [21]: 12.5 µg/mL; MIC [22]: 1.56 µg/mL; MIC [23]: 1.56 µg/mL; MIC [24]: < 0.2 µg/mL; MIC [25]: 0.39 µg/mL; MIC [26]: 3.13 µg/mL

# From patent US4684664A, “Derivatives of β-(4-isocyano-1,2,3,4-diepoxycyclopentyl) acrylic acid” (Kureha Kagaku Kogyo Kabushiki Kaisha, priority 1984, dated 1987)
